The values below come from a melting point compilation (Tetko et al.; mined from patent text by program, amines drawn as free bases though some values may be those of a salt).

Consider `O=C(C=Cc1ccc(F)cc1)C(c1ccccc1)c1ccccc1`, for which the melting point (as a rule, the temperature, or range, at which the solid turns liquid) is 122 to 124 °C.
The value for `CCc1cc(C#N)ccc1N1C(=O)C(=O)N(C(C)(C)CC)C1=S` was 173 °C.
In the case of `COCCCOc1ccc(CCC(=O)O)c(Oc2ncc(C(F)(F)F)cc2Cl)c1`, the melting point lay within 99.1 to 99.2 °C.
In turn, `OCCCNc1ccc2ncnn2n1` came in with a melting point of 193 to 194 °C.
Under `O=C1c2cc([N+](=O)[O-])ccc2CC1Br` (stereo not given) stands 102 to 105 °C; under `CC1CNCc2c1[nH]c1cnc3cc(Cl)ccc3c21` (stereo not given), 286 to 287 °C.
The value for `COC[C@H]1CN(C2=Nc3ccccc3Nc3sc(C)cc32)CCN1C` was 76 to 80 °C.
As to `O=C(O)CC(Sc1nc2ccccc2s1)C(=O)O` (stereo not given), the melting point lay in the range of 165 to 168 °C.
Under `COc1cc(OC)c(C2=NC(C)(C)CO2)cc1OC` stands 84 to 86 °C.
The value for `CC1(C(CCO)C(N)=O)OCCc2c1[nH]c1ccccc21` (stereo not given) was 159 to 161 °C; that for `C=CC(=O)NC(=O)NCCS(=O)(=O)C=C` was 177 to 179 °C; that for `NNc1nc(C(F)(F)F)nc(-c2ccc(F)cc2)c1-c1ccccc1` was 175 to 177 °C.
Under `O=C(NCCC(=O)N1CCCC1)c1ccc(-c2ccc3nnn(Cc4ccc5ncccc5c4)c3n2)cc1F` stands 151 to 153 °C.
As for `O=C1OCCC1N[C@@H](Cc1ccccc1)C(=O)OCc1ccccc1` (stereo not given in full), the melting point was 46 to 47 °C.
The value for `CCCCc1nc2c(c(=O)[nH]1)CN(C(=O)OCc1ccccc1)CC2` was 117 to 122 °C; that for `O=C1Nc2c(Cl)cc(Cl)cc2C12CCCC2` was 175 to 176 °C.
The value for `Cc1ccnc(N2CCN(C3Sc4ccccc4NC3=O)CC2)c1` (stereo not given) was 245 °C; that for `C[C@]12C[C@H](c3ccc(OCCCCCl)cc3)C3=C4CCC(=O)C=C4CC[C@H]3[C@@H]1CCC2=O` was 194 °C.
The value for `Cc1n[nH]c(C)c1-c1nn(C(C)c2oc3ccccc3c(=O)c2-c2cccc(F)c2)c2ncnc(N)c12` (stereo not given) was 240 to 243 °C.
Turning to `CCCn1c(COCC)nc2c(N)nc3cc(OC4CCN(S(C)(=O)=O)CC4)ccc3c21`, the melting point lay within 215 to 217 °C.
Compound `CCn1nc(-c2ccccc2)c(C(C)=O)c(Nc2cccc3ccc(C)nc23)c1=O` displayed a melting point of 172 to 173 °C.
The value for `O=C1CCC(N2Cc3c(CNC(=O)c4ccco4)cccc3C2=O)C(=O)N1` (stereo not given) was 219 to 221 °C.
Under `CNC(=NCCSCc1nc[nH]c1C)S(=O)(=O)O` stands 162 to 164 °C; under `CC1(C)OC(=O)Nc2ccc(-c3ccccc3-c3ncsn3)cc21`, 214 to 216 °C.
The value for `CCc1cc2c(s1)-n1c(nnc1CNC(=O)Nc1cccc(C)c1)CN=C2c1ccccc1Cl` was 260 to 262 °C; that for `Nc1c(Cl)cc(C(O)CNCCCCCCSCCc2ccccn2)cc1Cl` (stereo not given) was 83 to 84 °C.
Compound `O=C1C(c2cc3c(cc2O)OCC3)c2cc(F)ccc2N1C(c1ccccc1)c1ccccc1` (stereo not given) returned a melting point of 179 to 181 °C.
Under `CCOC(=O)c1cnc2nc(S(=O)(=O)Cl)nn2c1C` stands 65 to 69 °C; under `COc1cccc(N2C(=O)C3(CCCCO3)C(=O)c3cccnc32)c1` (stereo not given), 233 to 236 °C.
The value for `CCCCCOc1cc2c(cc1C(=O)Oc1ccc(C(=O)O)cn1)C(C)(C)CCC2(C)C` was 132 to 133 °C.
Under `CCCCCC1CCC(c2ccc(-c3cc(F)c(C(F)(F)Oc4cc(F)c(C(F)(F)F)c(F)c4)c(F)c3)c(F)c2)CC1` (stereo not given) stands 74 °C.
In turn, `ON=C1CCOc2ccccc21` displayed a melting point of 114 to 117 °C.
Under `O=C(O)CNC(=O)c1nc(Cl)c2cc(OCc3ccccc3)ccc2c1O` stands 194 to 196 °C.
The value for `Cn1c(=O)c(-c2c(Cl)cccc2Cl)cc2cnc(Nc3ccc(CCCC(=O)O)cc3)nc21` was 169 to 171 °C.
For the compound `CCC=CC(c1cc(F)ccc1F)S(=O)(=O)c1ccc(Cl)cc1` (stereo not given), the melting point was 99 to 100 °C.
The value for `O=C(Nc1nc(C(F)(F)F)co1)C1c2ccccc2Oc2c(Cl)cccc21` (racemic) was 212 °C; that for `O=C(CCCCC1CCSS1)N1CCSC1` (stereo not given) was 40 to 41 °C.
The value for `O=Cc1ccc2c(c1)CC(Cc1ccccc1)O2` (stereo not given) was 77 to 80 °C.
On to `CSC1=NC(=O)/C(=C/c2ccccc2Nc2c(Cl)ccc(C)c2Cl)S1`, for which the melting point was in the range of 233 to 236 °C.
Under `Cn1nnnc1-c1ccc(CCl)cc1` stands 90 to 92 °C; under `NC(=NCC(F)(F)F)Nc1ccnc(SCCN2C(=O)c3ccccc3C2=O)n1`, 192 to 195 °C.
Under `CC1(C)CC(O)C(C)(C)c2cc(CC=Cc3ccccc3C#N)ccc21` (stereo not given) stands 163 to 165 °C; under `c1ncn2nncc2n1`, 249 to 251 °C.
The value for `COC(=O)c1snc(-c2ccccc2)c1C(=O)OC` was 70 to 71.5 °C.
For `CC(C)(C)SCC1(C(=O)O)Cc2ccccc2C1`, the melting point fell in the range of 158 to 163 °C.
Under `N#Cc1ccc(-c2ccc(-c3ccc(C#N)cn3)o2)nc1` stands 311 to 312 °C.
For the compound `CNC=C1C(=O)C(C)(C)OC1(C)C`, the melting point fell in the range of 80 to 82 °C.
The value for `CC(C)(C)OC(=O)[C@@H]1CC[C@H](CC(=O)N[C@@H](Cc2ccc(OCc3c(Cl)cccc3Cl)cc2)C(=O)O)N1Cc1ccccc1` was 80 to 83 °C; that for `CCCNC(=O)NNC(=O)c1ccc(OC)cc1` was 176 to 179 °C; that for `O=C(NOC1CCCCO1)c1ccccc1` (stereo not given) was 130 to 134 °C.
The value for `COC(=O)[C@H](Cc1ccccc1)NC(=O)c1ccc(N)cc1` was 145 to 146 °C; that for `CCOC(=O)c1ccc(NC(=O)c2c(OC)cccc2OC)cc1` was 183 to 185 °C.
Under `CC(C)(C)c1cc(CCC(=O)NCCNCCNCCNC(=O)CCc2cc(C(C)(C)C)c(O)c(C(C)(C)C)c2)cc(C(C)(C)C)c1O` stands 80 to 110 °C; under `CC(=O)SCCC(=O)CCC(=O)O`, 72 to 74 °C; under `CC(C)(C)C1=CC(C(F)(F)F)=CCC1(O)C(C)(C)C` (stereo not given), 78 to 80 °C.
As to `Cc1cn(-c2cc(NC(=O)c3ccc(Cl)c(C#Cc4cnc(NC5CC5)nc4)c3)cc(C(F)(F)F)c2)cn1`, the melting point fell in the range of 163 to 165 °C.
`CCc1cc2c(SCc3ccccc3)ncnc2s1` returned a melting point of 54 to 60 °C.
As to `CC1(C)COC(C(C)(C)Oc2ccc(Cl)cc2)=N1`, the melting point lay in the range of 59 to 61 °C.
Under `N#Cc1ccc(OCc2ccsc2)cc1F` stands 63 to 65 °C.
Under `Cc1ccc(N2N=CC(=NNc3cccc(-c4cccc(C(=O)O)c4)c3O)C2=O)cc1C` stands 226 to 228 °C; under `COCn1c(C)nc2c(O)cc(C(=O)N(C)C)cc21`, 173 to 183 °C.
`COc1cc2c(cc1OCc1ccccc1)CC(C)(C)N(C(=O)c1cc(OC)c(OC)c(OC)c1)C2C` (stereo not given): the melting point was in the range of 175 to 177 °C.
The value for `CC(C)NC(=O)NOCc1nc2c(N)nc3ccccc3c2n1CC(C)(C)O` was 231 to 233 °C; that for `CC(=O)Oc1ccccc1C(=O)N[C@@H]1CCCC[C@@H]1O[N+](=O)[O-]` (relative stereo) was 143 to 145 °C.
The compound `CCOC(=O)c1ccc(N=C(Nc2ccc(C(=O)OCC)cc2)c2ccccc2)cc1` displayed a melting point of 170 to 172 °C.
`COc1cc(-c2nc(-n3cncn3)c3c(C)c(C#N)sc3n2)cc(OC)c1OC` had a melting point of 236 to 240 °C.
The value for `CCOc1ccc(NCc2cc(OC)c(OC)c(OC)c2)cc1` was 76 to 78 °C; that for `COc1cc2sc(C(=N)NO)cc2cc1OC(F)F` was 176 to 177 °C; that for `CC(C)C1Cc2cnc3c(c2C1(O)CC#N)CCO3` (stereo not given) was 169 to 170 °C.
Under `CCOC(=O)c1ccc(NC(=O)C(c2ccc(Cl)cc2)c2ccc(Cl)cc2)cc1` stands 171 to 172 °C; under `COc1cc(-c2nc3ccc(OCC(C)N(C)C)cc3n2Cc2ccccc2C(F)(F)F)cc(OC)c1OC` (stereo not given), 163 °C.
Turning to `COc1ccc2c(c1)ncc1c(=O)n(-c3ccccc3)oc12`, the melting point worked out at 170 °C.
Under `CCCc1c(CSc2nnc(NC(=O)CCC(=O)OCC)s2)ccc(C(C)=O)c1O` stands 166 °C; under `CC(C)c1ccc(S(=O)(=O)NC(=O)Cc2ccc3c(c2)OCO3)cc1`, 262 to 263 °C; under `CC(C)CN(CC(=O)O)S(=O)(=O)c1ccc(N2CCC(c3ccccc3)CC2)cc1`, 140 to 143 °C.
Under `CC(=O)c1nnc2n1-c1sc(Cl)cc1C(c1ccccc1Cl)=NC2` stands 89 to 91 °C.
`O=[N+]([O-])c1cccc(S(=O)(=O)N(CCO)CCO)c1`: the melting point is 100 to 102 °C.
The value for `COc1cc2c(cc1OC)C1C(CO)CSC(C=N)N1CC2` (stereo not given) was 149 to 151 °C; that for `CC(C)CNC(=O)COC1c2ccccc2C(=O)N1c1ccc2ccc(Cl)nc2n1` (stereo not given) was 146 °C; that for `NC(=O)c1c[nH]cc1-c1cccc(Cl)c1Cl` was 185 to 190 °C.
Under `CC(C)(C)NCC(O)c1cc(Cl)c(NC(=O)NC(C)(C)C)c(Cl)c1` (stereo not given) stands 167 to 169 °C.
The value for `Nc1cc[nH]c(=O)c1Cl` was 264 to 267 °C; that for `Cc1[nH]nc(CN2CCN(Cc3c[nH]c4ncccc34)CC2)c1-c1ccccc1` was 154 to 156 °C.
`O=C(O)C1Cc2ccc(OCc3ccccc3)cc2O1` (stereo not given) came in with a melting point of 118 to 119 °C.
With `CN1CN(C)C(=O)N(C)C1=O`, the melting point lay within 88 to 90 °C.
In the case of `C#CCNC(=NCCSCc1ncccc1Cl)NC#N`, the melting point lay in the range of 115 to 116 °C.
The value for `CCOC(=O)CCCCn1c(C(=O)NCc2nnc(C)n2-c2sc(CC)cc2C(=O)c2ccccc2Cl)cc2ccccc21` was 85 to 87 °C; that for `CCCc1ccc(-c2ncccc2S(=O)(=O)Nc2ncc(C)nc2OC)cc1` was 70 to 72 °C; that for `O=C(CS(=O)(=O)Cc1cccs1)C12CC3CC(CC(C3)C1)C2` was 95.5 to 98 °C.
The value for `O=C(O)C1Oc2ccccc2C2(CC2)c2cccc(Cl)c2O1` (stereo not given) was 154 to 158 °C.
